Data as given in PMC6267684, “Pharmacokinetic evaluation of the PNC disassembler metarrestin in wild-type and Pdx1-Cre;LSL-Kras^G12D/+;Tp53^R172H/+ (KPC) mice, a genetically engineered model of pancreatic cancer” (Cancer Chemotherapy and Pharmacology, 2018).
Like-named read-outs stand apart in the source and are kept apart here.

Experiments:
[1] = Pharmacokinetics in C57BL/6 mice after single IV and PO administration; type: in vivo; conditions: for Kp: liver/plasma, read-out: AUC0–∞ ratio (tissue/plasma); for AUC(0-t): read-out: AUC0–24h
Description: For pharmacokinetic studies, metarrestin solutions prepared in 30% PEG-400 and 70% (20% w:v HP-β-CD in water) solution were administered to C57BL/6 mice at 3 mg/kg IV via tail vein injection, or 3 and 10 mg/kg orally via gavage. KPC mice were additionally treated with 25 mg/kg PO via gavage. The dosing volume was 3 mL/kg for IV route and 10 mL/kg for PO route. Dosing solutions were prepared on the day of administration. Blood samples were collected at 10, 20 min, 1, 2, 4, 7 and 24 h after 3 mg/kg IV administration. After oral administration of 3 and 10 mg/kg in C57BL6 mice, blood and liver samples were collected at 10 min, 0.5, 1, 2, 3, 5, 7, 9 and 24 h post dosing (n = 3 per time point). In KPC mice, blood, pancreatic tumor, spleen and liver samples were collected at 1, 2, 3, 6, 9, 12 and 24 h after 25 mg/kg PO administration.
Blood samples were collected in K2EDTA tubes and plasma was harvested after centrifugation at 3000 rpm for 10 min. Tissue samples were weighed and flash-frozen for PK and PD mRNA expression analyses, embedded into OCT blocks for PNC determination and processed into FFPE blocks for histopathology assessment. All PK samples were stored at − 80 °C until analysis.
An ultra-performance liquid chromatography–tandem mass spectrometry (UPLC–MS/MS) method was developed to determine metarrestin concentrations in plasma and tissue samples. Mass spectrometric analysis was performed on a Waters Xevo TQ-S triple quadrupole instrument using electrospray ionization in positive mode. The separation was performed on an Acquity BEH C18 column (50 × 2.1 mm, 1.7 µ) using a Waters Acquity UPLC system with 0.6 mL/min flow rate and gradient elution. Mobile phase A was 0.1% formic acid in water, and B was 0.1% formic acid in acetonitrile (ACN). The column temperature was maintained at 60 °C. The calibration standards and quality control (QC) samples were prepared in the control blank mouse plasma and tissue homogenate. Tissues were homogenized with 3 or 6 volumes (v/w) of deionized water on the day of analysis. Proteins were precipitated from 10 µL plasma or 5 µL tissue homogenate with 200 µL ACN containing 100 ng/mL Tolbutamide as internal standard in 96-well plates. The mixture was vortexed for 2 min and centrifuged at 4000 rpm for 30 min at 4 °C. An aliquot of 150 µL supernatant was transferred to a 350-µL 96-well plate. 0.2 µL supernatant was injected for the UPLC–MS/MS analysis. Data were analyzed using MassLynx V4.1.
The pharmacokinetic parameters were calculated using the non-compartmental approach (Models 200 and 201) of the pharmacokinetic software Phoenix WinNonlin, version 6.4 (Certara, St. Louis, MO). The area under the plasma concentration vs time curve (AUC) was calculated using the linear trapezoidal method. The slope of the apparent terminal phase was estimated by log linear regression using at least three data points and the terminal rate constant (λ) was derived from the slope. AUC0–∞ was estimated as the sum of the AUC0–t (where t is the time of the last measurable concentration) and Ct/λ. The apparent terminal half-life (t½) was calculated as 0.693/λ.

[2] = Preliminary toxicity profile, 25 mg/kg PO gavage for 14 days; conditions: for ALP (alkaline phosphatase) / ALT (alanine transaminase) / AST (aspartate transaminase): in U/L (unit assumed); for Weight: in g (unit assumed)
[3] = Steady-state PK in KPC mice fed metarrestin-infused chow; type: in vivo; conditions: for Kp / AUC0-24hr Ratio (Tissue/Plasma): 10 mg/kg/day; for Kp / Cmax / Tmax / AUC0-24hr Ratio (Tissue/Plasma): day 10, chow; for Kp: read-out: AUC0-24hr Ratio (Tissue/Plasma); for concentration at 0 h / concentration at 3 h / concentration at 6 h / concentration at 9 h / concentration at 12 h / concentration at 15 h / concentration at 24 h: day 10, 10 mg/kg/day (70 ppm) chow; for Cmax / Tmax: po
[4] = C57BL/6, mouse, liver, po, 3 mg/kg, 3 mg/kg PO single dose
[5] = C57BL/6, mouse, liver, po, 10 mg/kg, 10 mg/kg PO single dose
[6] = C57BL/6, mouse, liver, 3 mg/kg PO single dose
[7] = C57BL/6, mouse, liver, 10 mg/kg PO single dose
[8] = C57BL/6, mouse, plasma, 3 mg/kg IV single dose
[9] = C57BL/6, mouse, plasma, 3 mg/kg PO single dose
[10] = C57BL/6, mouse, plasma, 10 mg/kg PO single dose
[11] = females, 25 mg/kg, 14 days, in g/dL (unit assumed)
[12] = females, N=10, 25 mg/kg, number of animals
[13] = males, N=10, 25 mg/kg, number of animals
[14] = KPC, mouse, plasma, oral, read-out: Plasma concentration
[15] = KPC, mouse, liver, target dose 10 mg/kg/day
[16] = KPC, mouse, plasma, target dose 10 mg/kg/day
[17] = KPC, mouse, spleen, target dose 10 mg/kg/day
[18] = KPC, mouse, tumor, target dose 10 mg/kg/day
[19] = KPC, mouse, tumor, oral, read-out: Tumor concentration

Molecule N=c1c2c(-c3ccccc3)c(-c3ccccc3)n(Cc3ccccc3)c2ncn1[C@H]1CC[C@H](O)CC1 [metarrestin, Trans-4-(7-benzyl-4-imino-5,6-diphenyl-4,7-dihydro-3H-pyrrolo[2,3-d]pyrimidin-3-yl) cyclohexanol] has a Kp [1, 4] greater than 50, a half-life [1, 4] of 4.7 h and a Kp [1, 5] greater than 50. For the same molecule, the half-life [1, 5] was 4.1 h, the half-life ([1]; C57BL/6, mouse, plasma, intravenous, oral, 10 mg/kg, low doses of 3 and 10 mg/kg, span over groups) was 5 to 5.6 h and the half-life ([1]; C57BL/6, mouse, plasma, iv, 3 mg/kg, 3 mg/kg IV single dose) was roughly 5 h. For the same molecule, the half-life ([1]; C57BL/6, mouse, plasma, po, 3 mg/kg, 3 mg/kg PO single dose) was 5.4 h, the bioavailability ([1]; C57BL/6, mouse, plasma, po, 10 mg/kg, single oral dose 3 and 10 mg/kg via gavage) was greater than 80% and the half-life ([1]; C57BL/6, mouse, plasma, po, 10 mg/kg, 10 mg/kg PO single dose) was 5.6 h. For the same molecule, the AUC(0-inf) [1, 6] was 68600 ng·h/mL, the Cmax [1, 6] was 5420 ng/mL and the Tmax [1, 6] was 1 h. The AUC(0-t) [1, 6] was 66100 ng·h/mL, the AUC(0-inf) [1, 7] was 281000 ng·h/mL and the Cmax [1, 7] was 21400 ng/mL. The Tmax [1, 7] was 2 h, the AUC(0-t) [1, 7] was 276000 ng·h/mL and the AUC(0-inf) [1, 8] was 1040 ng·h/mL. It also gave an AUC(0-t) [1, 8] of 1010 ng·h/mL, a clearance ([1]; C57BL/6, mouse, plasma, 3 mg/kg IV single dose, read-out: CLp (plasma clearance)) of 48 mL/min/kg and a Vd ([1]; C57BL/6, mouse, plasma, 3 mg/kg IV single dose, read-out: Vdss (steady-state volume of distribution)) of 17 L/kg. For the same molecule, the AUC(0-inf) [1, 9] was 871 ng·h/mL, the Cmax [1, 9] was 55.7 ng/mL and the Tmax [1, 9] was 2 h. The AUC(0-t) [1, 9] was 823 ng·h/mL, the AUC(0-inf) [1, 10] was 4790 ng·h/mL and the Cmax [1, 10] was 349 ng/mL. The Tmax [1, 10] was 2 h, the AUC(0-t) [1, 10] was 4520 ng·h/mL and the “t 1/2” value ([1]; plasma, 3 mg/kg IV single dose, 3 mg/kg) was 5 h. The “body weight, hypoactivity, liver function tests compared to vehicle controls” value ([2]; daily 25 mg/kg by oral gavage for 14 days) was “not associated with any change in body weight, hypoactivity, or change in liver function tests”, the “CHOL (cholesterol)” value ([2]; females, 25 mg/kg, 14 days) was 123 ± 18.4 and the “LD (lactate dehydrogenase)” value ([2]; females, 25 mg/kg, 14 days) was 495 ± 89.7. The “ALP (alkaline phosphatase)” value ([2]; females, 25 mg/kg, 14 days) was 136 ± 13.8, the “ALT (alanine transaminase)” value ([2]; females, 25 mg/kg, 14 days) was 100 ± 47.6 and the “AST (aspartate transaminase)” value ([2]; females, 25 mg/kg, 14 days) was 100 ± 28.3. For the same molecule, the “GLOB (globulin)” value [2, 11] was 2.1 ± 0.13, the “TP (total protein)” value [2, 11] was 5.2 ± 0.21 and the Weight ([2]; females, Day 1, 25 mg/kg) was 23.1 ± 1.55. The “Weight Change” value ([2]; females, Day 1 to 4, 25 mg/kg) was 0.0 ± 0.80, the “Weight Change” value ([2]; females, Day 1 to 15, 25 mg/kg) was 2.7 ± 1.04 and the “Weight Change” value ([2]; females, Day 4 to 7, 25 mg/kg) was 1.2 ±0.67. The Weight ([2]; females, Day 7, 25 mg/kg) was 24.3 ± 1.32, the Weight ([2]; females, Day 15, 25 mg/kg) was 25.8 ± 1.70 and the Death [2, 12] was 0. The Rough coat [2, 12] was 0, the Scant feces [2, 12] was 0 and the “CRE (creatinine)” value ([2]; males, 25 mg/kg, 14 days) was 0.09 ± 0.015. The “P04 (phosphorus)” value ([2]; males, 25 mg/kg, 14 days) was 10.2 ± 0.50, the “ALP (alkaline phosphatase)” value ([2]; males, 25 mg/kg, 14 days) was 84 ± 13.5 and the “ALT (alanine transaminase)” value ([2]; males, 25 mg/kg, 14 days) was 137 ± 67.4. For the same molecule, the “AST (aspartate transaminase)” value ([2]; males, 25 mg/kg, 14 days) was 88 ± 24.3, the “K (potassium)” value ([2]; males, 25 mg/kg, 14 days, in mmol/L (unit assumed)) was 7.3 ± 0.21 and the Weight ([2]; males, Day 1, 25 mg/kg) was 31.4 ± 1.38. The “Weight Change” value ([2]; males, Day 1 to 4, 25 mg/kg) was 1.1 ± 0.90, the “Weight Change” value ([2]; males, Day 1 to 15, 25 mg/kg) was 3.1 ± 1.51 and the “Weight Change” value ([2]; males, Day 4 to 7, 25 mg/kg) was 0.9 ± 0.59. It also gave a Weight ([2]; males, Day 7, 25 mg/kg) of 33.3 ± 2.02, a Weight ([2]; males, Day 15, 25 mg/kg) of 34.4 ± 2.33 and a Cold to touch [2, 13] of 0. For the same molecule, the Death [2, 13] was 0, the Hypoactivity [2, 13] was 0 and the Rough coat [2, 13] was 6. For the same molecule, the Scant feces [2, 13] was 0, the Thin [2, 13] was 0 and the “intratumor AUC0–24h” value ([3]; 10 mg/kg PO chow) was 80,600 h ng/mL. For the same molecule, the “intratumor AUC0–24h” value ([3]; 10 mg/kg PO steady-state chow) was 96,100 h ng/mL, the “intratumor AUC levels” value ([3]; 10 mg/kg dosing with solid or liquid formulations) was > 80,000 ng h/mL and the Kp ([3]; KPC, mouse, liver, oral, liver/plasma, target dose 10 mg/kg/day) was greater than 20. It also gave an AUC(0-t) ([3]; KPC, mouse, oral, plasma, day 10, chow 70 ppm, target dose 10 mg/kg/day, read-out: AUC0-24hr) of 4160 ng·h/mL, a Kp ([3]; KPC, mouse, pancreatic tumor, oral, tumor/plasma, target dose 10 mg/kg/day) greater than 20 and a concentration at 0 h [3, 14] of 0.46 µM. For the same molecule, the concentration at 3 h [3, 14] was 0.33 µM, the concentration at 6 h [3, 14] was 0.3 µM and the concentration at 9 h [3, 14] was 0.5 µM. For the same molecule, the concentration at 12 h [3, 14] was 0.43 µM, the concentration at 15 h [3, 14] was 0.36 µM and the concentration at 24 h [3, 14] was 0.27 µM. It also gave a Cmax [3, 15] of 7250 ng/mL, a Tmax [3, 15] of 12 h and a Cmax [3, 16] of 237 ng/mL. It also gave a Tmax [3, 16] of 9 h, a Cmax [3, 17] of 5840 ng/mL and a Tmax [3, 17] of 15 h. For the same molecule, the Cmax [3, 18] was 5100 ng/mL, the Tmax [3, 18] was 9 h and the Kp ([3]; KPC, mouse, spleen, oral, spleen/plasma, target dose 10 mg/kg/day) was greater than 20. For the same molecule, the concentration at 0 h [3, 19] was 7.9 µM, the concentration at 3 h [3, 19] was 10.3 µM and the concentration at 6 h [3, 19] was 8 µM. The concentration at 9 h [3, 19] was 10.8 µM, the concentration at 12 h [3, 19] was 10.7 µM and the concentration at 15 h [3, 19] was 7.2 µM. For the same molecule, the concentration at 24 h [3, 19] was 6.7 µM, the “AUC0-24hr Ratio (Tissue/Plasma)” value ([3]; liver/plasma, target dose 10 mg/kg/day) was 37 and the AUC0-24hr ([3]; liver, day 10, chow 70 ppm, target dose 10 mg/kg/day) was 153000 ng●hr/mL. The “AUC0-24hr Ratio (Tissue/Plasma)” value ([3]; spleen/plasma, target dose 10 mg/kg/day) was 26, the AUC0-24hr ([3]; spleen, day 10, chow 70 ppm, target dose 10 mg/kg/day) was 109000 ng●hr/mL and the “AUC0-24hr Ratio (Tissue/Plasma)” value ([3]; tumor/plasma, target dose 10 mg/kg/day) was 23. The AUC0-24hr ([3]; tumor, day 10, chow 70 ppm, target dose 10 mg/kg/day) was 96100 ng●hr/mL.
